Counter-ions that a name gives are not always drawn.
Tested on: warfarin-resistant Norway rats from Chicago, Illinois
Experiment: Example II: feeding test of 50 ppm warfarin bait with or without antibiotic
Type: in vivo
Details: conclusion in words from the Example II mortality figures

CN(C)[C@@H]1C(O)=C(C(N)=O)C(=O)[C@@]2(O)C(O)=C3C(=O)c4c(O)cccc4[C@@](C)(O)[C@H]3C[C@@H]12 [tetracycline hydrochloride]
Effect of the antibiotic on the toxicity of warfarin: appears to enhance the toxicity of warfarin

Source: US20010041737A1, “Enhancing the toxicity of warfarin in rodents” (priority 1998, published 2001)
